Assay results from US7192975B2, “Arylimidazole derivatives, preparation and therapeutic used thereof” (Societe de Conseils de Recherches Et d''Applications …, priority 2002, dated 2007).
Where a name gives a salt, the structure may show the parent alone.

First: CCCCOC(=O)NCCc1nc(-c2ccc(-c3ccc(N=C(N)c4cccs4)cc3)cc2)c[nH]1 (as salt: hydrochloride) [Example 3, butyl 2-[4-(4′-{[(1Z)-amino(thien-2-yl)methylene]amino}-1,1′-biphenyl-4-yl-1H-imidazol-2-yl]ethylcarbamate hydrochloride]
Second: Cl.NC(=Nc1ccc(-c2c[nH]c(CNCc3ccccc3)n2)cc1)c1cccs1 [Example 9, N′-(4-{2-[(benzylamino)methyl]-1H-imidazol-4-yl}phenyl)thiophene-2-carboximidamide hydrochloride]
The melting point of the first is lower: 97 to 98 °C for the first, 228 to 229 °C for the second.

First: NC(=N[N+](=O)[O-])Nc1ccc(-c2c[nH]c(CCC3CCCCC3)n2)cc1 (as salt: hydrochloride) [Example 19, N{4-[2-(2-cyclohexylethyl)-1H-imidazol-4-yl]phenyl}N″-nitroguanidine hydrochloride]
Second: Cl.NC(=Nc1ccc(-c2c[nH]c(CCC3CCCCC3)n2)cc1)c1cccs1 [Example 15, N′-{4-[2-(2-cyclohexylethyl)-1H-imidazol-4-yl]phenyl}thiophene-2-carboximidamide hydrochloride]
The melting point of the first is lower: 185 to 186 °C for the first, 196.2 °C for the second.

First: CCCCN(CCc1nc(-c2cccc(/N=C(/N)c3cccs3)c2)c[nH]1)C(=O)O.Cl [Example 2, butyl-2[4(3-{[(1E)-amino(thien-2yl)methylene]-amino}phenyl)-1H-imidazol-2-yl]ethylcarbamate hydrochloride]
Second: CCCCCC(CCCCC)c1nc(-c2cccc(N=C(N)c3cccs3)c2)c[nH]1.Cl [Example 14, N′-{3-[2(1-pentylhexyl)-1H-imidazol-4-yl]phenyl}thiophene-2-carboximidamide hydrochloride]
The melting point of the first is higher: 210 to 212 °C for the first, 163.3 °C for the second.

Compared with `Cl.NC(=Nc1ccc(-c2c[nH]c(CCNC3CCCCC3)n2)cc1)c1cccs1` [Example 5, N′-(4-{2-[2-(cyclohexylamino)ethyl]-1H-imidazol-4-yl}phenyl)thiophene-2-carboximidamide hydrochloride], `Cl.NC(=Nc1ccc(-c2c[nH]c(CNC3CCCCCC3)n2)cc1)c1cccs1` [Example 20, N′-(4-{2-[(cycloheptylamino)methyl]-1H-imidazol-4-yl}phenyl)thiophene-2-carboximidamide hydrochloride] is higher in melting point: 185 to 186 °C for the first, 264 to 265 °C for the second.

First: CN(Cc1nc(-c2ccc(N=C(N)c3cccs3)cc2)c[nH]1)C1CCCCC1.Cl [Example 7, N′-[4-(2-{[cyclohexyl(methyl)amino]methyl}-1H-imidazol-4-yl)phenyl]thiophene-2-carboximidamide hydrochloride]
Second: Cl.NC(=Nc1ccc(-c2c[nH]c(CNC3CCC3)n2)cc1)c1cccs1 [Example 22, N′-(4-{2-[(cyclobutylamino)methyl]-1H-imidazol-4-yl}phenyl)thiophene-2-carboximidamide hydrochloride]
The melting point of the first is lower: 240 to 241 °C for the first, 263 to 264 °C for the second.

Compared with `Cl.NC(=Nc1ccc(-c2c[nH]c(CN(Cc3ccccc3)Cc3ccccc3)n2)cc1)c1cccs1` [Example 8, N′-(4{2-[(dibenzylamino)methyl]-1H-imidazol-4-yl}phenyl)thiophene-2-carboximidamide hydrochloride], `Cl.NC(=Nc1ccc(-c2c[nH]c(C/N=C(/N)c3cccs3)n2)cc1)c1cccs1` [Example 12, N′-{4-[2-({[(1E)-amino(thien-2-yl)methylene]-amino}methyl)-1H-imidazol-4-yl]phenyl}thiophene-2-carboximidamide hydrochloride] is higher in melting point: 150 to 151 °C for the first, 227 to 228 °C for the second.

First: Cl.NC(=Nc1cccc(-c2c[nH]c(CCCC3CCCCC3)n2)c1)c1cccs1 [Example 17, N′-{3-[2-(3-cyclohexylpropyl)-1H-imidazol-4-yl]phenyl}thiophene-2-carboximidamide hydrochloride]
Second: CC(C)Cc1ccc(Cc2nc(-c3cccc(N=C(N)c4cccs4)c3)c[nH]2)cc1.Cl [Example 27, N′-{3-[2-(4-isobutylbenzyl)-1H-imidazol-4-yl]phenyl}thiophene-2-carboximidamide hydrochloride]
The melting point of the first is lower: 180 to 181 °C for the first, 214 to 216 °C for the second.

`NC(=Nc1cccc(-c2c[nH]c(CNC3CCCCC3)n2)c1)c1cccs1` (as salt: hydrochloride) [Example 6, N′-(3{2-[cyclohexylamino)methyl]-1H-imidazol-4-yl}phenyl)thiophene-2-carboximidamide hydrochloride] gave a melting point greater than 225 °C.
In the case of `N=C(Nc1cccc(-c2c[nH]c(CCC3CCCCC3)n2)c1)c1cccs1` (as salt: hydrochloride) [Example 13, N-{3[2-(2-cyclohexlethyl)-1H-imidazol-4-yl]phenyl}thiophene-2-carboximidamide hydrochloride], the melting point is reported as greater than 191 °C.
With `Cl.NC(=Nc1cccc(-c2c[nH]c(C/N=C(/N)c3cccs3)n2)c1)c1cccs1` [Example 11, N′-{3[2-({[(1E)-amino(thien-2-yl)methylene]-amino}methyl)-1H-imidazol-4-yl]phenyl}thiophene-2-carboximidamide hydrochloride] the melting point was greater than 300 °C.
With `CNCc1nc(-c2ccc(N=C(N)c3cccs3)cc2)c[nH]1.Cl` [Example 21, N′-(4-{2-[(methylamino)methyl]-1H-imidazol-4-yl}phenyl)thiophene-2-carboximidamide hydrochloride] the melting point was greater than 250 °C.
Compound `Cl.NC(=Nc1ccc(-c2c[nH]c(CNCC(c3ccccc3)c3ccccc3)n2)cc1)c1cccs1` [Example 23, N′[4-(2-{[(2,2-diphenylethyl)amino]methyl}-1H-imidazol-4-yl)phenyl]thiophene-2-carboximidamide hydrochloride] has a melting point greater than 250 °C.
Compound `Cl.NC(=Nc1cccc(-c2c[nH]c(CC/N=C(/N)c3cccs3)n2)c1)c1cccs1` [Example 24, N′-{3-[2-(2{[(1E)-amino(thien-2-yl)methylene]amino}ethyl)-1H-imidazol-4-yl]phenyl}thiophene-2-carboximidamide hydrochloride] has a melting point greater than 245 °C.
